Test results published in PubChem BioAssay AID1996.
≈ marks a conversion by molar mass, not a printed value.

conditions: buffer; pH 7.4; 200.0 µM

Compound	solubility kinetic
O=C(c1ccco1)N1CCN(C(=O)c2ccc(-c3ccc([N+](=O)[O-])cc3)o2)CC1	44.1 µg/mL (≈ 112 µM)
Cc1ccc(C2CCN(C(=S)NC3CCCCC3)C2)cc1 (centres undefined)	1.3 µg/mL (≈ 4.3 µM)
Fc1ccccc1-c1nc2ccccc2[nH]1	> 31.8 µg/mL
CC(C)NCC(O)COc1cccc2ccccc12.Cl (centres undefined)	> 44.4 µg/mL
Cc1noc(C)c1C(=O)N1CCC(C(=O)c2ccccc2)CC1	41.8 µg/mL (≈ 134 µM)
CCOC(=O)c1sc(N)c(C#N)c1COC(=O)C1=COCCO1	11.6 µg/mL (≈ 34.3 µM)
COc1ccc(/C=C/C(=O)N(C)C2CCCCC2)cc1Br	18 µg/mL (≈ 51.1 µM)
NC(=O)CN1C(=O)C(=O)N(Cc2cccc(Cl)c2)C1=O	> 44.4 µg/mL
CN1CCN(C(=S)NC(=O)c2ccc(Br)cc2)CC1	51 µg/mL (≈ 149 µM)
Cc1ccccc1C(=O)NCCNC(=O)c1ccccn1	39.3 µg/mL (≈ 139 µM)
O=C(CCC1CCN(Cc2ccccc2Cl)CC1)NC1CC1	> 48.1 µg/mL
Cc1cccc(C)c1NC(=O)C(=O)c1cn(C)c2ccccc12	< 0.3 µg/mL
Cc1ccc(Cl)cc1NC(=O)CN1C(=O)NC(C)(C2CC2)C1=O (centres undefined)	> 50.4 µg/mL
C=CCNC(=O)NC(=O)c1csc([N+](=O)[O-])c1	2 µg/mL (≈ 7.84 µM)
Cl.NC(=NCCc1ccccc1)NC(=O)c1cc(Cl)ccc1O	10.6 µg/mL
Cc1ccccc1OCC(=O)Nc1ccccc1-c1ccccc1	< 0.7 µg/mL
COc1ccc(C(=O)CNC2=NCCC2)cc1.Cl	> 40.3 µg/mL
O=C(OCc1cnc(Cl)s1)c1cccs1	26.5 µg/mL (≈ 102 µM)
Cc1cc(Br)ccc1NC(=O)CNC(=O)CSc1nccn1C	> 59.6 µg/mL
O=C(CCS(=O)(=O)c1ccccc1)Nc1nc(-c2ccc(F)cc2)cs1	< 0.4 µg/mL

Compound	solubility kinetic
OC(CNCc1ccc2c(c1)OCO2)COc1ccccc1 (centres undefined)	> 45.2 µg/mL
Cc1cc(=O)[nH]c2c(C)cc(S(=O)(=O)Nc3ccc(O)cc3)cc12	49.7 µg/mL (≈ 144 µM)
Cc1ccc(C(=O)CN2CCN(c3ccccn3)CC2)c(C)c1	25.5 µg/mL (≈ 82.4 µM)
O=S(=O)(c1ccc2[nH]c3c(c2c1)CCCC3)N1CCCCC1	12.3 µg/mL (≈ 38.6 µM)
COc1ccc(C)cc1NCc1ccc([N+](=O)[O-])cc1	3.1 µg/mL (≈ 11.4 µM)
O=C(Nc1ccc(F)cc1F)Nc1sccc1-c1nc2ccccc2s1	0.3 µg/mL (≈ 0.774 µM)
Cc1onc(-c2c(Cl)cccc2Cl)c1C(=O)N=S(C)(=O)c1ccccc1 (centres undefined)	1.8 µg/mL (≈ 4.4 µM)
COc1cccc(/C=C2\SC(=N)N(c3ccc(F)cc3)C2=O)c1	0.5 µg/mL (≈ 1.52 µM)
COc1ccc(C(C#N)=C2C=CC(=NO)C=C2)cc1	4.2 µg/mL (≈ 16.6 µM)
CCCOc1ccc(C(C)=O)cc1Cc1c(O)[nH]c(=S)[nH]c1=O	29.4 µg/mL (≈ 87.9 µM)
NS(=O)(=O)c1cccc(NC(=O)c2ccc(NS(=O)(=O)c3cccc([N+](=O)[O-])c3)cc2)c1	> 71.5 µg/mL
CN(C)c1cccc2cccc(N(C)C)c12	31.2 µg/mL (≈ 146 µM)
O=C(CNC(=O)c1ccccc1Cl)c1ccccc1	37.6 µg/mL (≈ 137 µM)
O=C1CN(S(=O)(=O)c2ccccc2)c2ccccc2N1	> 43.2 µg/mL
Cc1c(Cl)cccc1NC(=O)NCc1ccccn1	38.5 µg/mL (≈ 140 µM)
O=C(NC(=S)Nc1cccc(Cl)c1Cl)C1CC1	0.8 µg/mL (≈ 2.77 µM)
COC(=O)c1ccc(NC(=O)NC(=O)Oc2ccccc2)cc1	42.5 µg/mL (≈ 135 µM)
CCCC(=O)OCC(=O)Nc1ccc2[nH]c(=O)[nH]c2c1	> 41.6 µg/mL
N#Cc1ccc(C(=O)OCC(=O)N2CCOCC2)cc1	> 41.1 µg/mL
CCOC(=O)c1sc(N)c(C(=O)OCC)c1C	4.4 µg/mL (≈ 17.1 µM)

Compound	solubility kinetic
CN1C(=O)NC(=O)/C(=C/c2ccc(C(=O)O)cc2)C1=O	> 41.1 µg/mL
COc1ccc(-c2nc(NC(C)=O)sc2-c2ccccc2)cc1	4 µg/mL (≈ 12.3 µM)
Fc1ccc(Br)cc1SCCc1ccncc1	19.7 µg/mL (≈ 63.1 µM)
COc1ccc(N2CCN(CC(=O)c3c[nH]c4ccccc34)CC2)cc1	1.9 µg/mL (≈ 5.44 µM)
NC(=O)c1ccc(NC(=O)Nc2ccc3c(c2)OCO3)cc1	3.8 µg/mL (≈ 12.7 µM)
Cn1c(SCc2ccc(C#N)cc2)nnc1-c1ccncc1	> 46.1 µg/mL
O=C(/C=C/c1cccc(F)c1)c1ccc(N2CCOCC2)cc1	5.8 µg/mL (≈ 18.6 µM)
NC(=O)c1ccc(NC(=O)CSC(=O)c2ccccc2)cc1	16.4 µg/mL (≈ 52.2 µM)
CN1CCCN(C(=O)c2cc3c(s2)CCCC3)CC1	39.7 µg/mL (≈ 143 µM)
COc1ccc(Cl)cc1/C=C1/C(=O)ON=C1C	29 µg/mL (≈ 115 µM)
CC(C)CC(=O)N1CCN(Cc2cccc(Cl)c2)CC1	24.8 µg/mL (≈ 84.1 µM)
Cc1ccc(C(=O)OCC(=O)N(C)c2ccccc2)c(C)c1	> 44.6 µg/mL
Cc1ccccc1Cn1c(C)nc2ccc([N+](=O)[O-])cc2c1=O	6.9 µg/mL (≈ 22.3 µM)
CC(C)CNC(=O)COc1ncnc2sccc12	> 39.8 µg/mL
Cc1cc(C(=O)COc2ccccc2C(N)=O)c(C)n1C	2.5 µg/mL (≈ 8.73 µM)
CCOC(=O)N1CCC(NS(=O)(=O)c2ccccc2)CC1	> 46.9 µg/mL
Nc1ccc(S(=O)(=O)NCc2ccccn2)cc1	> 39.5 µg/mL
CC1C(=O)N2CCCc3cc(NC(=O)C4CCCCC4)cc1c32 (centres undefined)	> 46.9 µg/mL
CCC(=O)c1ccc(SC(=O)N(C)C)cc1O	33.7 µg/mL (≈ 133 µM)
